Laboratory results: EP3454861B1, “BENZOXAZINE OR QUINAZOLINE DERIVATIVES FOR USE IN THE TREATMENT OF ALZHEIMER'S DISEASE” (Biocodex, priority 2016, dated 2017)

How the values were obtained:
Assay type in all cases: in vivo, souris
Caspase-3 = assay: ELISA of Caspase-3 in mouse hippocampus after Aβ25-35
Text: (§1) Le 1^er jour : une version « mélangée » (scrambled) du peptide amyloïde β25-35 (Sc.Aβ, témoin négatif) ou le peptide amyloïde β25-35 (Aβ25-35) est injecté par voie intra-cérébroventriculaire (ICV) (le peptide Aβ25-35 provoque l'intoxication cellulaire). Entre le 1^er jour et le 10^ème jour, les traitements sont administrés une fois par jour par voie intrapéritonéale (IP).
(§2) A la fin de la session de rétention d'évitement passif, le 10^ème jour, les animaux sont sacrifiés par décapitation. L'hippocampe et le cortex frontal sont disséqués et congelés dans l'azote liquide. L'hippocampe est utilisé pour mesurer le taux de peroxydation lipidique à l'aide d'une méthode colorimétrique et pour évaluer les taux de 4 marqueurs biochimiques par des tests ELISA. Le cortex est conservé à -80°C en attente d'analyses supplémentaires. Les plasmas sont également conservés en attente d'analyses supplémentaires. Les échantillons biologiques sont jetés après 3 mois.
(§3) Pour tous les dosages, les […] sont homogénéisés, après décongélation, dans un tampon Tris (Tris 50 mM, 150 mM NaCl, pH 7,5) et traités par ultrasons pendant 20 secondes. […] Pour chaque dosage, l'absorbance est lue à 450 nm et la concentration est calculée en utilisant la courbe standard. Les résultats sont exprimés en pg ou ng de marqueur par mg de tissu et en pourcentage de solution Sc.Aβ + véhicule. 6 échantillons par groupe (n = 36 kits ELISA) sont dosés en double.

GFAP = assay: ELISA of GFAP in mouse hippocampus after Aβ25-35
Text: as §1, §2, §3

Bax = assay: ELISA of Bax in mouse hippocampus after Aβ25-35
Text: as §1, §2, §3

Bcl2 = assay: ELISA of Bcl2 in mouse hippocampus after Aβ25-35
Text: as §1, §2, §3

[1] = test system: modèle murin de maladie d'Alzheimer par administration du peptide amyloïde β25-35; assay: Spontaneous alternation test in the Y-maze (spatial working memory), Aβ25-35 mouse model; conditions: all doses tested (12,5, 25, 50 mg/kg per day IP), day 8, Aβ25-35 9 nmol ICV
Text: Soixante-douze souris males Swiss (30-35 grammes) sont utilisées. Six groupes sont constitués et soumis à différents traitements : Tableau 1. Groupes de traitement.
as §1
Du 8^ème au 10^ème jour, deux tests comportementaux sont effectués : • Procédure d'alternance spontanée dans le labyrinthe en Y (évaluation de la mémoire spatiale de travail) le 8^ème jour, soit 7 jours après l'injection de peptide; • Réponse d'évitement passif (évaluation de la mémoire contextuelle à long terme) avec l'entrainement le 9^ème jour et la séance de rétention le 10^ème jour.
Chaque souris est anesthésiée avec 2,5% d"isoflurane. Le peptide Aβ25-35 (9 nmol/souris) ou le peptide Sc.Aβ (9 nmol/souris) est injecté par voir ICV, dans un volume final de 3 µL/souris. […]

[2] = test system: modèle murin de maladie d'Alzheimer par administration du peptide amyloïde β25-35; assay: Passive avoidance test (long-term contextual memory), retention session, Aβ25-35 mouse model; conditions: Aβ25-35 9 nmol ICV, day 10
Text: as §1

[3] = Aβ25-35/Etifoxine 12.5 mg/kg IP

Structure (SMILES): CCNC1=Nc2ccc(Cl)cc2C(C)(c2ccccc2)O1 (stereo not shown) [Etifoxine, chlorhydratede 6-chloro-2-éthylamino-4-méthyl-4-phényl-4H-[3,1]benzoxazine]
- Expression CASP-3 (Caspase-3; [3]): 136,8 ± 7,2 % de Sc.Aβ/V
- Expression CASP-3 (Caspase-3; Aβ25-35/Etifoxine 25 mg/kg IP): 127,3 ± 10,8 % de Sc.Aβ/V
- Expression CASP-3 (Caspase-3; Aβ25-35/Etifoxine 50 mg/kg IP): 109,9 ± 5,6 % de Sc.Aβ/V
- Expression GFAP (GFAP; [3]): 160,4 ± 10,2 % de Sc.Aβ/V
- Expression GFAP (GFAP; Aβ25-35/Etifoxine 25 mg/kg IP): 131,7 ± 4,3 % de Sc.Aβ/V
- Expression GFAP (GFAP; Aβ25-35/Etifoxine 50 mg/kg IP): 129,8 ± 2,7 % de Sc.Aβ/V
- Taux de protéine Bax (Bax; [3]): 180,1 ± 7,4 % de Sc.Aβ/V
- Taux de protéine Bax (Bax; Aβ25-35/Etifoxine 25 mg/kg IP): 132,6± 7,5 % de Sc.Aβ/V
- Taux de protéine Bax (Bax; Aβ25-35/Etifoxine 50 mg/kg IP): 99,9 ± 4,2 % de Sc.Aβ/V
- Taux de protéine Bcl2 (Bcl2; [3]): 97,2 ± 2,1 % de Sc.Aβ/V
- Taux de protéine Bcl2 (Bcl2; Aβ25-35/Etifoxine 25 mg/kg IP): 99,4 ± 2,3 % de Sc.Aβ/V
- Taux de protéine Bcl2 (Bcl2; Aβ25-35/Etifoxine 50 mg/kg IP): 102,3 ± 3,2 % de Sc.Aβ/V
- déficits d'apprentissage (alternance spontanée, mémoire spatiale) [1]: atténue de façon significative les déficits d'apprentissage
- temps de fuite lors de la session de rétention, Moyenne ([2]; Etifoxine 25 mg/kg IP once daily): 22,4 ± 2,4%
- temps de fuite lors de la session de rétention, Moyenne ([2]; Etifoxine 50 mg/kg IP once daily): 21,6 ± 3,0%
- temps de latence lors la session de rétention, Moyenne ([2]; Etifoxine 12,5 mg/kg IP once daily): 208,1 ± 17,4%
